Read-outs that look alike come from different tables or passages of the source.

Data set [1] concerns EV71 genogroup B5 strain TW/70902/08. Nature of the data set: microbe, parasite or virus in culture. The data set is classed as cell-based. The settings on record: Enterovirus A, genogroup B5, strain TW/70902/08, RD cells.
For data set [2], the system named is BrCr Lab Strain of EV-A71. Nature of the data set: Antiviral activity against the BrCr lab strain of EV-A71 in RD cells (CPE reduction, MTS/PMS). The format is cell-based. The note with it: Enterovirus A.
For data set [3], the system named is EV71. The arrangement: method as in PMID 27246775, PMID 31809045. The note with it: Figure 1, earlier prototypes; cited from earlier work.
Data set [4] relates to EV71 genogroup C4 strain TW/1956/05. Description: microbe, parasite or virus in culture. The data set is classed as cell-based. The note with it: Enterovirus A, genogroup C4, strain TW/1956/05, RD cells.
The subject of data set [5] is EV71 genogroup C2 strain H08300 461#812. Description: microbe, parasite or virus in culture. The format is cell-based. The note with it: Enterovirus A, genogroup C2, strain H08300 461#812, RD cells.
The subject of data set [6] is HIV. The arrangement: method as in PMID 26513643, PMID 31809045. The note with it: Figure 1, earlier prototypes; cited from earlier work.
For data set [7], the system named is HIV-2 (ROD). Nature of the data set: Anti-HIV-2 activity in MT-4 cells (CPE, MTS/PES). The data set is classed as cell-based.
For data set [8], the system named is EV71 genogroup B2 strain 11316. Description: microbe, parasite or virus in culture. The data set is classed as cell-based. The note with it: Enterovirus A, genogroup B2, strain 11316, RD cells.
The subject of data set [9] is HIV-1 (NL4.3). Nature of the data set: microbe, parasite or virus in culture. The format is cell-based. The note with it: MT-4 cells, 50% reduction of virus-induced cytopathic effect. (In general: Damage to the host cells serves as the signal in cytopathic effect assays.)
Data set [10] has as its system HIV-1 (NL4.3). Nature of the data set: microbe, parasite or virus in culture. The note with it: CXCR4-tropic strain, PBMC; for EC50: read-out: HIV-1 (NL4.3) EC50. The data set is classed as cell-based.
In data set [11] the test system is HIV-1 (Ba-L). Description: microbe, parasite or virus in culture. The data set is classed as cell-based. The note with it: CCR5-tropic strain, PBMC, read-out: HIV-1 (Ba-L) EC50.
Data set [12] in a line: in vitro. The settings on record: human.
Data set [13] can be described thus: in vitro. The note with it: human. This is another data set of the same source.
The nature of data set [14]: Cytotoxicity in MT-4 cells (MTS/PES). The settings on record: human.
The mark [15] stands for this setting: EVA71, RD, BrCr lab strain, RD cells, 50% reduction of virus-induced CPE, read-out: EC50.
Setting [16] is: Human immunodeficiency virus 2, MT4, MT-4 cells, 50% reduction of virus-induced cytopathic effect, read-out: HIV-2 (ROD) EC50.
Setting [17] is: Human immunodeficiency virus 1, MT4.

In the case of `O=C(CCC(CCC(=O)NC(Cc1c(-c2cc(C(=O)O)cc(C(=O)O)c2)[nH]c2ccccc12)C(=O)O)(CCC(=O)NC(Cc1c(-c2cc(C(=O)O)cc(C(=O)O)c2)[nH]c2ccccc12)C(=O)O)[N+](=O)[O-])NC(Cc1c(-c2cc(C(=O)O)cc(C(=O)O)c2)[nH]c2ccccc12)C(=O)O` (stereo not shown) [AL-470, reference compound], the EC50 was 81 ± 13 nM in [1]; 300 ± 30 nM in data set [2] (setting [15]); 353 ± 31 nM in [2] (EVA71, RD, genogroup A, BrCr, RD cells (clinical isolate panel), read-out: EC50); 350 ± 30 nM in data set [3]; 38 ± 3 nM in data set [4]; 57 ± 0.2 nM in data set [5]. Moreover, the EC50 in data set [6] is 270 ± 120 nM; in [7] (setting [16]), 600 ± 800 nM; in data set [8], 179 ± 11 nM; in [9] (setting [17]) it was 300 ± 100 nM.

For `c1cc(CN2CCCNCCNCCCNCC2)ccc1CN1CCCNCCNCCCNCC1` [AMD3100], the 50% effective concentration (EC50) was 3.57 ng/mL in [10] (Human immunodeficiency virus 1) and above 1000 ng/mL in data set [11] (Human immunodeficiency virus 1, BAL).

In the case of `O=C(CCC(CCC(=O)NC(Cc1c[nH]c2c(-c3cccc(C(=O)O)c3)cccc12)C(=O)O)(CCC(=O)NC(Cc1c[nH]c2c(-c3cccc(C(=O)O)c3)cccc12)C(=O)O)[N+](=O)[O-])NC(Cc1c[nH]c2c(-c3cccc(C(=O)O)c3)cccc12)C(=O)O` (stereo not shown) [Compound 14], the concentration giving a half-maximal response (EC50) was 54800 ± 34100 nM in data set [2] (setting [15]), above 30000 nM in [7] (setting [16]) and 45100 ± 10200 nM in data set [9] (setting [17]). In addition, the CC50 in data set [12] is above 84000 nM; in data set [13] it was above 100000 nM.

Regarding `O=C(CCC(CCC(=O)NC(Cc1c[nH]c2c(-c3cc(C(=O)O)cc(C(=O)O)c3)cccc12)C(=O)O)(CCC(=O)NC(Cc1c[nH]c2c(-c3cc(C(=O)O)cc(C(=O)O)c3)cccc12)C(=O)O)[N+](=O)[O-])NC(Cc1c[nH]c2c(-c3cc(C(=O)O)cc(C(=O)O)c3)cccc12)C(=O)O` (stereo not shown) [Compound 16], the results for the concentration for a half-maximal effect (EC50) in data set [2] (setting [15]), in data set [7] (setting [16]) and in [9] (setting [17]) were 1200 ± 200 nM, 1900 ± 400 nM and 400 ± 200 nM, respectively.

For `O=C(CCOCC(COCCC(=O)NC(Cc1c[nH]c2c(-c3cccc(C(=O)O)c3)cccc12)C(=O)O)(COCCC(=O)NC(Cc1c[nH]c2c(-c3cccc(C(=O)O)c3)cccc12)C(=O)O)COCCC(=O)NC(Cc1c[nH]c2c(-c3cccc(C(=O)O)c3)cccc12)C(=O)O)NC(Cc1c[nH]c2c(-c3cccc(C(=O)O)c3)cccc12)C(=O)O` (stereo not shown) [Compound 21], the 50% effective concentration (EC50) was determined as 3100 ± 1100 nM in data set [2] (setting [15]), 7900 ± 900 nM in data set [7] (setting [16]) and 14100 ± 600 nM in [9] (setting [17]).

Take `O=C(CCOCC(COCCC(=O)NC(Cc1c[nH]c2c(-c3ccc(C(=O)O)cc3)cccc12)C(=O)O)(COCCC(=O)NC(Cc1c[nH]c2c(-c3ccc(C(=O)O)cc3)cccc12)C(=O)O)COCCC(=O)NC(Cc1c[nH]c2c(-c3ccc(C(=O)O)cc3)cccc12)C(=O)O)NC(Cc1c[nH]c2c(-c3ccc(C(=O)O)cc3)cccc12)C(=O)O` (stereo not shown) [Compound 22]: the EC50 in [2] (setting [15]) came to 1700 ± 400 nM; in [7] (setting [16]), 400 ± 300 nM; in [9] (setting [17]), 6500 ± 2500 nM. Also, the CC50 in data set [12] and in [13] was above 100000 nM each time.

For `O=C(CCOCC(COCCC(=O)NC(Cc1c[nH]c2c(-c3cc(C(=O)O)cc(C(=O)O)c3)cccc12)C(=O)O)(COCCC(=O)NC(Cc1c[nH]c2c(-c3cc(C(=O)O)cc(C(=O)O)c3)cccc12)C(=O)O)COCCC(=O)NC(Cc1c[nH]c2c(-c3cc(C(=O)O)cc(C(=O)O)c3)cccc12)C(=O)O)NC(Cc1c[nH]c2c(-c3cc(C(=O)O)cc(C(=O)O)c3)cccc12)C(=O)O` (stereo not shown) [Compound 23], the concentration giving a half-maximal response (EC50) in [2] (setting [15]) turned out to be 300 ± 40 nM; in data set [7] (setting [16]) it was 20 ± 20 nM; in [9] (setting [17]), 20 ± 10 nM. In data set [12], this compound came in with a CC50 above 55000 nM. In data set [13], this compound showed a CC50 at 120 h of 75000 nM.

On to `O=C(CCOCC(COCCC(=O)NC(Cc1c(-c2ccc(C(=O)O)cc2)[nH]c2c(-c3ccc(C(=O)O)cc3)cccc12)C(=O)O)(COCCC(=O)NC(Cc1c(-c2ccc(C(=O)O)cc2)[nH]c2c(-c3ccc(C(=O)O)cc3)cccc12)C(=O)O)COCCC(=O)NC(Cc1c(-c2ccc(C(=O)O)cc2)[nH]c2c(-c3ccc(C(=O)O)cc3)cccc12)C(=O)O)NC(Cc1c(-c2ccc(C(=O)O)cc2)[nH]c2c(-c3ccc(C(=O)O)cc3)cccc12)C(=O)O` (stereo not shown) [Compound 32], for which the concentration giving a half-maximal response (EC50) in data set [2] (setting [15]) was found to be 100 ± 20 nM; in data set [7] (setting [16]) it was 20 ± 20 nM; in [9] (setting [17]) it was 200 ± 200 nM. Besides, the CC50 in [12] and in [13] was above 100000 nM throughout.

Take `NC(Cc1c(-c2cc(C(=O)O)cc(C(=O)O)c2)[nH]c2c(-c3cc(C(=O)O)cc(C(=O)O)c3)cc(-c3cc(C(=O)O)cc(C(=O)O)c3)cc12)C(=O)O` (stereo not shown) [Compound 37, 5,5′,5″-(3-(2-Amino-2-carboxyethyl)-1H-indole-2,5,7-triyl)triisophthalic Acid]: the CC50 at 5 days in data set [14] was above 100000 nM. The half-maximal effective concentration (EC50) in data set [2] (EVA71, RD) was above 90000 nM; in [7] (Human immunodeficiency virus 2, MT4, read-out: HIV-2 (ROD) EC50), above 100000 nM; in data set [9] (setting [17]), above 100000 nM.

For the compound `O=C(CCC(CCC(=O)NC(Cc1c(-c2cccc(C(=O)O)c2)[nH]c2ccccc12)C(=O)O)(CCC(=O)NC(Cc1c(-c2cccc(C(=O)O)c2)[nH]c2ccccc12)C(=O)O)[N+](=O)[O-])NC(Cc1c(-c2cccc(C(=O)O)c2)[nH]c2ccccc12)C(=O)O` (stereo not shown) [I, reference compound], the EC50 in [7] (setting [16]) was determined as 64000 ± 28000 nM; in data set [9] (setting [17]), 16000 ± 5700 nM. The same compound registered a CC50 in data set [13] above 100000 nM.

In the case of `O=C(CCC(CCC(=O)NC(Cc1c(-c2ccc(C(=O)O)cc2)[nH]c2ccccc12)C(=O)O)(CCC(=O)NC(Cc1c(-c2ccc(C(=O)O)cc2)[nH]c2ccccc12)C(=O)O)[N+](=O)[O-])NC(Cc1c(-c2ccc(C(=O)O)cc2)[nH]c2ccccc12)C(=O)O` (stereo not shown) [II, reference compound], the EC50 was above 71000 nM in data set [7] (setting [16]) and 2400 ± 1300 nM in data set [9] (setting [17]). Also, the CC50 in data set [13] was determined as 71000 nM.

Take `O=C(CCOCC(COCCC(=O)NC(Cc1c(-c2cccc(C(=O)O)c2)[nH]c2ccccc12)C(=O)O)(COCCC(=O)NC(Cc1c(-c2cccc(C(=O)O)c2)[nH]c2ccccc12)C(=O)O)COCCC(=O)NC(Cc1c(-c2cccc(C(=O)O)c2)[nH]c2ccccc12)C(=O)O)NC(Cc1c(-c2cccc(C(=O)O)c2)[nH]c2ccccc12)C(=O)O` (stereo not shown) [III, reference compound]: the 50% effective concentration (EC50) was found to be 800 ± 500 nM in data set [7] (setting [16]) and 2000 ± 600 nM in [9] (setting [17]). In [13], this compound showed a CC50 above 100000 nM.

`O=C(CCOCC(COCCC(=O)NC(Cc1c(-c2ccc(C(=O)O)cc2)[nH]c2ccccc12)C(=O)O)(COCCC(=O)NC(Cc1c(-c2ccc(C(=O)O)cc2)[nH]c2ccccc12)C(=O)O)COCCC(=O)NC(Cc1c(-c2ccc(C(=O)O)cc2)[nH]c2ccccc12)C(=O)O)NC(Cc1c(-c2ccc(C(=O)O)cc2)[nH]c2ccccc12)C(=O)O` (stereo not shown) [IV, reference compound]: the half-maximal effective concentration (EC50) in data set [7] (setting [16]) was 700 ± 800 nM; in [9] (setting [17]) it was 700 ± 500 nM. The compound also returned a CC50 in data set [13] above 100000 nM.

In [14], `CN[C@@H]1[C@H](O[C@@H]2OC[C@@H](O)[C@H](O)[C@H]2O)[C@@H](O)[C@H](O[C@H]2c3cc(C)c(C(=O)N[C@H](C)C(=O)O)c(O)c3-c3c(cc4c(c3O)C(=O)c3cc(OC)cc(O)c3C4=O)[C@@H]2O)O[C@@H]1C` [PRM-A, pradimicin A, reference compound] gave a CC50 at 5 days above 100000 nM. The values for the EC50 in data set [7] (setting [16]) and in data set [9] (setting [17]) were 5900 ± 3700 nM and 3300 ± 1200 nM, respectively.

For the compound `CCOC(=O)c1ccc(OCCC2CCN(c3ccc(C)nn3)CC2)cc1` [pirodavir, reference compound], in data set [2] (EVA71, BrCr lab strain, RD cells, 50% reduction of virus-induced CPE, read-out: EC50), the EC50 was 300 ± 100 nM. In [12], this compound came in with a CC50 at 3 days above 100000 nM.

Take “dextran sulfate-5000 [DS-5000, reference compound]”: the concentration giving a half-maximal response (EC50) in [7] (MT-4 cells, 50% reduction of virus-induced cytopathic effect, read-out: HIV-2 (ROD) EC50) amounted to 30 ± 10 nM; in data set [9], 70 ± 20 nM.

Take maraviroc: in [10], the “HIV-1 (NL4.3) EC50” value is reported as “insensitive” and the EC50 was above 1000 nM. In addition, the EC50 in [11] came to 4.48 nM.

One may read the EC50 as the concentration giving half of the maximal effect.

Source of the values: article PMC8389807 (Journal of Medicinal Chemistry, 2021).
